Experimental data as given in US20250026759A1 (Merck Sharp & Dohme LLC, priority 2023, published 2025).

test system: PBMCs infected with VSV-G pseudotyped HIV virus (VSV-G/pNLG1-P2A-ΔEnv); assay: cells; assay type: cell-based, human; conditions: Homo sapiens, PBMC, read-out: TACK EC50

| Compound | EC50 |
| --- | --- |
| Cc1nn(Cc2cc3c(cc2F)[C@@](C#CC2CC2)(C(C)(F)F)NC(=O)N3)c2ccccc12 [Example 93, (S)-4-(cyclopropylethynyl)-4-(1,1-difluoroethyl)-6-fluoro-7-((3-methyl-1H-indazol-1-yl)methyl)-3,4-dihydroquinazolin-2(1H)-one] | 28.5 nM |
| CC(F)(F)[C@@]1(C#CC2CC2)NC(=O)Nc2cc(Cn3ccc(-c4cc[nH]n4)n3)c(F)cc21 [Example 52, (S)-7-(1H,1′H-[3,3′-bipyrazol]-1-ylmethyl)-4-(cyclopropylethynyl)-4-(1,1-difluoroethyl)-6-fluoro-3,4-dihydroquinazolin-2(1H)-one] | 28.3 nM |
| COCc1ccn(Cc2cc3c(cc2F)[C@@](C#CC2CC2)(C(C)(F)F)N(C)C(=O)N3)n1 [Example 112, (S)-4-(cyclopropylethynyl)-4-(1,1-difluoroethyl)-6-fluoro-7-((3-(methoxymethyl)-1H-pyrazol-1-yl)methyl)-3-methyl-3,4-dihydroquinazolin-2(1H)-one] | 18.1 nM |
| Cc1cc(N)nn1Cc1cc2c(cc1F)[C@@](C#CC1CC1)(C(C)(F)F)NC(=O)N2 [Example 44, (S)-7-((3-amino-5-methyl-1H-pyrazol-1-yl)methyl)-4-(cyclopropylethynyl)-4-(1,1-difluoroethyl)-6-fluoro-3,4-dihydroquinazolin-2(1H)-one] | 19.5 nM |
| CC(F)(F)[C@@]1(C#CC2CC2)NC(=O)Nc2cc(Cn3cnc4ccccc43)c(F)cc21 [Example 94, (S)-7-((1H-benzo[d]imidazol-1-yl)methyl)-4-(cyclopropylethynyl)-4-(1,1-difluoroethyl)-6-fluoro-3,4-dihydroquinazolin-2(1H)-one] | 44.2 nM |
| CN(Cc1cc2c(cc1F)[C@@](C#CC1CC1)(C(C)(F)F)NC(=O)N2)C(=O)c1ncc[nH]1 [Example 81, (S)-N-((4-(cyclopropylethynyl)-4-(1,1-difluoroethyl)-6-fluoro-2-oxo-1,2,3,4-tetrahydroquinazolin-7-yl)methyl)-N-methyl-1H-imidazole-2-carboxamide] | 12.1 nM |
| CC(F)(F)[C@@]1(C#CC2CC2)NC(=O)Nc2cc(Cn3ncnc3N)c(F)cc21 (single isomer, unassigned) [Example 105] | 10.9 nM |
| CC(F)(F)[C@@]1(C#CC2CC2)NC(=O)Nc2cc(Cn3c(Cl)n[nH]c3=O)c(F)cc21 [Example 35, (S)-7-((3-chloro-5-oxo-1,5-dihydro-4H-1,2,4-triazol-4-yl)methyl)-4-(cyclopropylethynyl)-4-(1,1-difluoroethyl)-6-fluoro-3,4-dihydroquinazolin-2(1H)-one] | 10.9 nM |
| Cc1ccn(Cc2ccc3c(c2)NC(=O)N[C@]3(C#CC2CC2)C(F)(F)F)n1 [Example 127, (S)-4-(cyclopropylethynyl)-7-((3-methyl-1H-pyrazol-1-yl)methyl)-4-(trifluoromethyl)-3,4-dihydroquinazolin-2(1H)-one] | 103 nM |
| CC(F)(F)[C@@]1(C#CC2CC2)NC(=O)Nc2cc(Cn3ncnc3C(N)=O)c(F)cc21 (single isomer, unassigned) [Example 114] | 18.5 nM |
| O=C1Nc2cc(CNC(=O)c3[nH]cnc3Cl)c(F)cc2[C@@](C#CC2CC2)(C(F)(F)F)N1 [Example 78, (S)-4-chloro-N-((4-(cyclopropylethynyl)-6-fluoro-2-oxo-4-(trifluoromethyl)-1,2,3,4-tetrahydroquinazolin-7-yl)methyl)-1H-imidazole-5-carboxamide] | 15.1 nM |
| O=C1Nc2cc(CN3Cc4ccccc4C3=O)c(F)cc2[C@@](C#CC2CC2)(C(F)(F)F)N1 [Example 96, (S)-4-(cyclopropylethynyl)-6-fluoro-7-((1-oxoisoindolin-2-yl)methyl)-4-(trifluoromethyl)-3,4-dihydroquinazolin-2(1H)-one] | 45.1 nM |
| CC(F)(F)[C@@]1(C#CC2CC2)NC(=O)Nc2cc(Cn3cc(F)c(CO)n3)c(F)cc21 [Example 67, (S)-4-(cyclopropylethynyl)-4-(1,1-difluoroethyl)-6-fluoro-7-((4-fluoro-3-(hydroxymethyl)-1H-pyrazol-1-yl)methyl)-3,4-dihydroquinazolin-2(1H)-one] | 26.1 nM |
| COc1nn(Cc2cc3c(cc2F)[C@@](C#CC2CC2)(C(C)(F)F)NC(=O)N3)cc1F [Example 115, (S)-4-(cyclopropylethynyl)-4-(1,1-difluoroethyl)-6-fluoro-7-((4-fluoro-3-methoxy-1H-pyrazol-1-yl)methyl)-3,4-dihydroquinazolin-2(1H)-one] | 19.8 nM |
| NC(=O)c1nccn1Cc1cc2c(cc1F)[C@@](C#CC1CC1)(C(F)(F)C1CC1)NC(=O)N2 [Example 62, (S)-1-((4-(cyclopropyldifluoromethyl)-4-(cyclopropylethynyl)-6-fluoro-2-oxo-1,2,3,4-tetrahydroquinazolin-7-yl)methyl)-1H-imidazole-2-carboxamide] | 31.9 nM |
| CC(F)(F)[C@@]1(C#CC2CC2)NC(=O)Nc2cc(Cn3cc(C(F)F)cn3)c(F)cc21 [Example 121, (S)-4-(cyclopropylethynyl)-4-(1,1-difluoroethyl)-7-((4-(difluoromethyl)-1H-pyrazol-1-yl)methyl)-6-fluoro-3,4-dihydroquinazolin-2(1H)-one] | 67.9 nM |

| Compound | EC50 |
| --- | --- |
| CC(F)(F)[C@@]1(C#CC2CC2)NC(=O)Nc2cc(Cn3ccc(Br)n3)c(F)cc21 [Example 19, (S)-7-((3-bromo-1H-pyrazol-1-yl)methyl)-4-(cyclopropylethynyl)-4-(1,1-difluoroethyl)-6-fluoro-3,4-dihydroquinazolin-2(1H)-one] | 26.2 nM |
| N#Cc1c[nH]c(C(=O)NCc2cc3c(cc2F)[C@@](C#CC2CC2)(C(F)(F)F)NC(=O)N3)c1 [Example 88, (S)-4-cyano-N-((4-(cyclopropylethynyl)-6-fluoro-2-oxo-4-(trifluoromethyl)-1,2,3,4-tetrahydroquinazolin-7-yl)methyl)-1H-pyrrole-2-carboxamide] | 25.4 nM |
| CN(Cc1cc2c(cc1F)[C@@](C#CC1CC1)(C(C)(F)F)NC(=O)N2)c1cc[nH]n1 [Example 111, (S)-4-(cyclopropylethynyl)-4-(1,1-difluoroethyl)-6-fluoro-7-((methyl(1H-pyrazol-3-yl)amino)methyl)-3,4-dihydroquinazolin-2(1H)-one] | 103 nM |
| Cc1ccn(Cc2cc3c(cc2F)[C@@](C#CC2CC2)(C(F)(F)F)NC(=O)N3)n1 [Example 101, (S)-4-(cyclopropylethynyl)-6-fluoro-7-((3-methyl-1H-pyrazol-1-yl)methyl)-4-(trifluoromethyl)-3,4-dihydroquinazolin-2(1H)-one] | 13.8 nM |
| O=C1Nc2cc(Cn3ccc(CO)n3)c(F)cc2[C@@](C#CC2CC2)(C(F)(F)F)N1 (single isomer, unassigned) [Example 6] | 17.1 nM |
| Cc1n[nH]c(=O)n1Cc1cc2c(cc1F)[C@@](C#CC1CC1)(C(F)(F)F)NC(=O)N2 [Example 33, (S)-4-(cyclopropylethynyl)-6-fluoro-7-((3-methyl-5-oxo-1,5-dihydro-4H-1,2,4-triazol-4-yl)methyl)-4-(trifluoromethyl)-3,4-dihydroquinazolin-2(1H)-one] | 23.6 nM |
| CC(F)(F)[C@@]1(C#CC2CC2)NC(=O)Nc2cc(Cn3nc(CO)cc3Cl)c(F)cc21 [Example 69, (S)-7-((5-chloro-3-(hydroxymethyl)-1H-pyrazol-1-yl)methyl)-4-(cyclopropylethynyl)-4-(1,1-difluoroethyl)-6-fluoro-3,4-dihydroquinazolin-2(1H)-one] | 29.8 nM |
| NC(=O)c1ncn(Cc2cc3c(cc2F)[C@@](C#CC2CC2)(C(F)(F)F)NC(=O)N3)n1 (single isomer, unassigned) [Example 117] | 31.6 nM |
| CC(F)(F)[C@@]1(C#CC2CC2)NC(=O)Nc2cc(Cn3cncc3CO)c(F)cc21 (single isomer, unassigned) [Example 50] | 68.1 nM |
| Nc1ccn(Cc2cc3c(cc2F)[C@@](C#CC2CC2)(C(F)(F)C2CC2)NC(=O)N3)n1 [Example 46, (S)-7-((3-amino-1H-pyrazol-1-yl)methyl)-4-(cyclopropyldifluoromethyl)-4-(cyclopropylethynyl)-6-fluoro-3,4-dihydroquinazolin-2(1H)-one] | 26.7 nM |
| COc1ccn(Cc2cc3c(cc2F)[C@@](C#CC2CC2)(C(C)(F)F)NC(=O)N3)n1 [Example 57, (S)-4-(cyclopropylethynyl)-4-(1,1-difluoroethyl)-6-fluoro-7-((3-methoxy-1H-pyrazol-1-yl)methyl)-3,4-dihydroquinazolin-2(1H)-one] | 12.8 nM |
| Cn1cnn(Cc2cc3c(cc2F)[C@@](C#CC2CC2)(C(C)(F)F)NC(=O)N3)c1=O [Example 122, (S)-4-(cyclopropylethynyl)-4-(1,1-difluoroethyl)-6-fluoro-7-((4-methyl-5-oxo-4,5-dihydro-1H-1,2,4-triazol-1-yl)methyl)-3,4-dihydroquinazolin-2(1H)-one] | 74.2 nM |
| CC(F)(F)[C@@]1(C#CC2CC2)NC(=O)Nc2cc(Cn3ccc(C=O)n3)c(F)cc21 [Example 102, (S)-1-((4-(cyclopropylethynyl)-4-(1,1-difluoroethyl)-6-fluoro-2-oxo-1,2,3,4-tetrahydroquinazolin-7-yl)methyl)-1H-pyrazole-3-carbaldehyde] | 26.8 nM |
| CC(F)(F)[C@@]1(C#CC2CC2)NC(=O)Nc2cc(Cn3ccc4c3C(=O)NC4)c(F)cc21 [Example 40, (S)-4-(cyclopropylethynyl)-4-(1,1-difluoroethyl)-6-fluoro-7-((6-oxo-5,6-dihydropyrrolo[3,4-b]pyrrol-1(4H)-yl)methyl)-3,4-dihydroquinazolin-2(1H)-one] | 5.9 nM |
| CC(F)(F)[C@@]1(C#CC2CC2)NC(=O)Nc2cc(Cn3[nH]c(=O)c4c3CCC4)c(F)cc21 [Example 61, (S)-4-(cyclopropylethynyl)-4-(1,1-difluoroethyl)-6-fluoro-7-((3-oxo-3,4,5,6-tetrahydrocyclopenta[c]pyrazol-1(2H)-yl)methyl)-3,4-dihydroquinazolin-2(1H)-one] | 30.6 nM |

same assay, conditions: read-out: TACK EC50

| Compound | EC50 |
| --- | --- |
| CN1C(=O)NC(=O)C1Cc1cc2c(cc1F)[C@@](C#CC1CC1)(C(C)(F)F)NC(=O)N2 (single isomer, unassigned) [Example 125, (R or S)-5-(((S)-4-(cyclopropylethynyl)-4-(1,1-difluoroethyl)-6-fluoro-2-oxo-1,2,3,4-tetrahydroquinazolin-7-yl)methyl)-1-methylimidazolidine-2,4-dione] | 111 nM |
